Source: US9783803B2, “Inhibition of NEAT1 for treatment of solid tumors” (VIB VZW, priority 2014, dated 2017)
“Also recorded” adds a separate entry of the source.

Tests used:
MCF-7 cells = assay: Paraspeckles formation by NEAT1 RNA-FISH in Nutlin3a-treated MCF-7 cells; type: cell-based, human; settings: for Nutlin-induced paraspeckles formation: MCF-7 following Nutlin exposure, gapmer transfection
Protocol: FIGS. 3A and 3B. […] FIG. 3A: MCF-7 cells were exposed to Nutlin3a (for 24 hours) and paraspeckles formation (red dots) was assessed by FISH-analysis with a NEAT1-specific probe set. Nuclei were counter-stained with DAPI (Blue). FIG. 3B: Quantification of paraspeckles formation in MCF-7 cells exposed to Nutlin3a before (mock) and after transfection of the cells with a control/scramble gapmer (scr) or gapmers targeting the NEAT1 transcripts (gap4 and gap6).
(§1) To differentiate between the different isoforms of NEAT, the following strategy was used. All qPCRs labeled NEAT1 or NEAT1_1 were done with primers targeting the region of +/−2200 bp. The knock-down probes labeled as such also target the region between 2000 and 3756 bp. The RNA-FISH probeset used is made up of a large set of oligos targeting region 1-3756 bp. The primers and knock-down probes labeled NEAT1_2 (the long transcript) target a region of +/−21300 bp. The RNA-FISH probes (again a set of oligos) target the portion from 3800-11700 bp to avoid detection of shorter isoforms.
A similar observation in MCF-7 cells treated with p53 shRNA confirms again that this induction is p53-dependent (data not shown). Thus, p53 stimulates the formation of paraspeckles in these cells.

NEAT1 [1] = assay: NEAT1 knock-down by LNA-gapmers (relative RNA levels, qPCR); type: cell-based, human; settings: for NEAT1 expression (knock-down): gapmer transfection, cancer cell lines; for NEAT1 isoforms inhibited: long (NEAT1_2) versus short isoform
Text: (§2) FIGS. 8A-8D. NEAT1 KD reduces the cell viability of human cancer cell lines. Gapmers 4 and 5 (gap 4 and 5) were used to knock-down the expression of all NEAT1 isoforms, and Gapmer 6 (gap 6) to specifically KD expression of the long isoform, in a series of cancer cell lines.
FIGS. 9A-9C. Knock-down of NEAT1 impairs HR and NHEJ DNA repair (FIG. 9A) but not Alt-NHEJ or SSA (FIG. 9B). […] SCR: scrambled control. Blue bars, all NEAT1 isoforms. Green bars, long NEAT1 isoform.
as §1
(§3) To further extend the anti-oncogenic effects observed in NEAT1 KO mice, NEAT1 was inhibited in different cancer cells using LNA-gapmers.
To confirm the hypothesis that NEAT1 inhibition interferes with DNA repair, U2OS cells were exposed to different concentrations of the DNA-damaging agent bleomycin. In NEAT1-inhibited cells, DNA damage (as measured by γH2AX intensity) is indeed increased (FIG. 9C, last three panels). Thus, DNA repair is severely impaired in NEAT1 KD cells.

BJ = assay: Paraspeckles formation in immortalized human diploid fibroblast cell line BJ; type: cell-based; settings: BJ cells, LNA-gapmer transfection
MCF-7 = assay: WST1-assay of cell growth / metabolic activity; type: cell-based, human; settings: gapmer transfection
Text: as §2, §3

NEAT1 [2] = assay: NEAT1 induction under low/chronic or high stress conditions; type: cell-based, human
Text: FIGS. 4A-4F. NEAT1 is induced in human and mouse cells exposed to low stress conditions including exposure to the inducer of senescence aurora-kinase inhibitor AZD1152-HQPA (AZD; FIG. 4A), low doses of Rotenone (Rot; FIG. 4B) that promotes oxidative stress, low doses of doxorubicin (Doxo, FIG. 4C) and replicative stress-induced damage (RS; FIG. 4D).
It has been shown that p53 is induced in MEFs during passages as a response to increasing oxidative stress levels generated by culturing of the cells in normoxic conditions. […] This is in line with chronic stress caused by UV radiation.
The same is true for cells that are exposed to high doses of irradiation (FIG. 4F).

NEAT1 promoter = assay: p53 ChIP-seq in MCF-7 cells; type: cell-based, human; settings: 24 hours
Protocol: (§4) FIG. 1 provides evidence that NEAT1 is a direct p53 target gene in the breast cancer cell line MCF-7. RNA-seq and p53 ChIPseq experiments have been carried out in MCF-7 cells following exposure to the MDM2 antagonist Nutlin3a for 24 hours.
(§5) This upregulation is mediated through the recruitment of p53 to the NEAT1 promoter as illustrated by the increase intensity of the p53-ChIP-seq peaks (green in FIG. 1).

NEAT1 [3] = assay: NEAT1 induction by Nutlin3a (RNA-seq, qPCR) in human cell lines; type: cell-based
Protocol: as §4, §5
Both isoforms are affected, with the effect being stronger for the longer isoform (NEAT1_2).
as §1

NEAT1 [4] = assay: NEAT1 induction by Nutlin in mouse embryonic fibroblasts; type: cell-based; settings: early passage (P3) MEFs
Text: FIGS. 7A-7F. NEAT1 is required for primary cells immortalization. NEAT1 expression in induced in mouse embryonic fibroblasts (MEFs) upon Nutlin3a exposure (FIG. 7A) and replicative passaging on a 3T3 protocol (FIG. 7B).

cancer cell lines [5] = assay: Paraspeckles formation in cancer cell lines after gapmer transfection; type: cell-based, human
Text: as §2, §3

cancer cell lines [6] = assay: Apoptosis, caspase 3/7 glow assay and FACS analysis; type: cell-based, human; settings: gapmer transfection
Text: as §2, §3

For “NEAT1-Gapmer6: LNA-gapmer, SEQ ID NO: 4, CTCACACGTCCATCT; specific for the long isoform of NEAT1 (LNA gapmer, LNA positions and linkages not given here)”, the Nutlin-induced paraspeckles formation (MCF-7 cells) was “dramatically attenuated”, the “NEAT1 expression (knock-down)” value (NEAT1 [1]) was “efficiently knockdown NEAT1” and the NEAT1 isoforms inhibited (NEAT1 [1]) was “specific for the long isoform”. The KD efficiency (NEAT1 [1]; long transcript NEAT1_2, U2OS cells) was “about 50%”, the formation of paraspeckles (BJ) was “decrease the formation of paraspeckles” and the “MCF-7 growth (WST1-assay)” value (MCF-7) was “decrease MCF-7 growth significantly”.
`CCN(CCO)CCCOc1ccc2c(Nc3cc(CC(=O)Nc4cccc(F)c4)[nH]n3)ncnc2c1` [AZD, AZD1152-HQPA] was tested, and the NEAT1 induction (NEAT1 [2]; melanoma cells Mel 501 undergoing senescence) was “induced”.
In the case of `COc1ccc(C2=N[C@@H](c3ccc(Cl)cc3)[C@@H](c3ccc(Cl)cc3)N2C(=O)N2CCNC(=O)C2)c(OC(C)C)c1` [Nutlin3a], the paraspeckles formation (MCF-7 cells; MCF-7 cells, Nutlin alone) is reported as “induces paraspeckles formation”, the “recruitment of p53 to the NEAT1 promoter (p53-ChIP peaks)” value (NEAT1 promoter) is reported as “p53 is directly recruited to the NEAT1 promoter” and the “transcription of NEAT1 (RNA-seq)” value (NEAT1 [3]; MCF-7 cells, 24 hours) is reported as “induces transcription of NEAT1”. For the same compound, the “expression of NEAT1” value (NEAT1 [3]; U2OS, A459, human ES cells, BJ) was “induces expression of NEAT1”, the NEAT1 induction (NEAT1 [3]; colorectal cancer cell line HCT116) was “NEAT1 induction in response to Nutlin can be seen” and the NEAT1 induction (NEAT1 [3]; isogenic p53 KO HCT116 cell line) was “not in an isogenic p53 KO HCT116 cell line”. For the same compound, the “expression of NEAT1” value (NEAT1 [4]) was “induces expression of NEAT1”.
“NEAT1-Gapmer5: LNA-gapmer, SEQ ID NO: 3, TAAGCACTTTGGAAAG; inhibits both long and short isoform of NEAT1 (LNA gapmer, LNA positions and linkages not given here)” was tested, and the paraspeckles formation (cancer cell lines [5]) was “robust decrease”, the “apoptosis (caspase 3/7 glow assay, FACS analysis)” value (cancer cell lines [6]) was “induction of apoptosis” and the “NEAT1 expression (knock-down)” value (NEAT1 [1]; listed as gap 5) was “efficiently knockdown NEAT1; also recorded: robust decrease in NEAT1 expression”. The NEAT1 isoforms inhibited (NEAT1 [1]) was “inhibit both the long and short isoform of NEAT1” and the “MCF-7 growth (WST1-assay)” value (MCF-7) was “decrease MCF-7 growth significantly”.
For `C=C(C)[C@H]1Cc2c(ccc3c2O[C@@H]2COc4cc(OC)c(OC)cc4[C@@H]2C3=O)O1` [rotenone], the NEAT1 induction (NEAT1 [2]; BJ cells, oxidative stress) was “induced”.
In the case of “NEAT1-Gapmer4: LNA-gapmer, SEQ ID NO: 2, GACGTAACAGAATT; inhibits both long and short isoform of NEAT1 (LNA gapmer, LNA positions and linkages not given here)”, the paraspeckles formation (cancer cell lines [5]) is reported as “robust decrease”, the “apoptosis (caspase 3/7 glow assay, FACS analysis)” value (cancer cell lines [6]) is reported as “induction of apoptosis” and the Nutlin-induced paraspeckles formation (MCF-7 cells) is reported as “dramatically attenuated”. The “NEAT1 expression (knock-down)” value (NEAT1 [1]; listed as gap 4) was “efficiently knockdown NEAT1; also recorded: robust decrease in NEAT1 expression”, the NEAT1 isoforms inhibited (NEAT1 [1]) was “inhibit both the long and short isoform of NEAT1” and the formation of paraspeckles (BJ) was “decrease the formation of paraspeckles”. The “MCF-7 growth (WST1-assay)” value (MCF-7) was “decrease MCF-7 growth significantly”.
For `COc1cccc2c1C(=O)c1c(O)c3c(c(O)c1C2=O)C[C@@](O)(C(=O)CO)C[C@@H]3O[C@H]1C[C@H](N)[C@H](O)[C@H](C)O1` [Doxorubicin], the NEAT1 induction (NEAT1 [2]; higher dose (5 μM)) was “not significantly” and the NEAT1 induction (NEAT1 [2]; low dose) was “induced”.
